Reference: patent publication US6759228B2, “Alkaline protease” (Kao Corporation, priority 1997, dated 2004)
Where two headings read alike, the source gives them in different places. *1 amine or outer side, *2 acyl side, *3 side chain or, on linkers, in order; H or OH if unused. Where a SMILES comes first, the peptide text is derived from it. CO = O=C([*:1])[*:2]

How the values were obtained:
KP43 protease [1] = experiment: Effects of surface active agents: residual activity, casein method; type: biochemical, Bacillus sp. KSM-KP43; details: 1% surfactant, 100 mM borate buffer (pH 10.0), 40° C., 4 hours; no treatment = 100%
Experimental: (§1) After 1 mL of 50 mmol/L of various buffer solutions containing 1% (w/v) Casein (Hammerstein: product of Merck Inc.) was maintained at 40° C. for 5 minutes, 0.1 mL of an enzyme solution was added to the solution, followed by incubation at 40° C. for 10 minutes. 2 mL of a TCA solution (0.11 mol/L trichloroacetic acid: 0.22 mol/L sodium acetate: 0.33 mol/L acetic acid) was added to stop the reaction and the mixture was left to stand at room temperature for 10 minutes. Subsequently, acid-denatured protein was filtered (No. 2 filter paper: product of Whattmann). To 0.5 mL of the filtrate, 2.5 mL of alkaline copper reagent (1% (w/v) sodium potassium tartrate: 1% (w/v) copper sulfate: 2% (w/v) sodium carbonate, 0.1 mol/L sodium hydroxide=1:1:100 (v/v)) was added, and after the solution was maintained at 30° C. for 10 minutes, 0.25 mL of diluted phenol reagent (phenol reagent (product of Kanto Chemical) diluted two-fold with deionized water) was added, and after being maintained at 30° C. for 30 minutes, the solution was subjected to an absorbance measurement at 660 nm. The following solution was used as a blank: to the above-described system of enzyme reaction, a reaction termination solution was mixed and then the enzyme solution was added.
(§2) An enzyme solution (7.0×10^−4 mP. U.) was added to 100 mmol/L boric acid buffer solution containing dissolved surfactants in an amount of 1%, and the resultant solution was incubated at 40° C. for 4 hours. The solution was diluted 20-fold with 50 mmol/L boric acid buffer solution (pH 10.0), and residual activity was measured using casein as a substrate.
(§3) Each protease was treated with a variety of 1% surface active agent at 40° C. for 4 hours in […], and residual activity was measured. […] Accordingly, the enzymes are considered to be useful as a detergent component containing surfactants.

KP1790 protease [2] = experiment: as above; type: biochemical, Bacillus sp. KSM-KP1790; details: 1% surfactant, 100 mM borate buffer (pH 10.0), 40° C., 4 hours; no treatment = 100%
KP9860 protease [3] = experiment: as above; type: biochemical, Bacillus sp. KSM-KP9860; details: 1% surfactant, 100 mM borate buffer (pH 10.0), 40° C., 4 hours; no treatment = 100%
Experimental: as §1, §2, §3

KP43 protease [4] = type: biochemical, Bacillus sp. KSM-KP43; details: pH 7
KP1790 protease [5] = type: biochemical, Bacillus sp. KSM-KP1790; details: pH 7
KP9860 protease [6] = experiment: Effects of inhibitors: residual activity, casein method; type: biochemical, Bacillus sp. KSM-KP9860
[7] = system: all three kinds of proteases (KP43, KP1790, KP9860); type: biochemical, Bacillus sp.; details: pH 7
KP43 protease [8] = type: biochemical, Bacillus sp. KSM-KP43
KP1790 protease [9] = experiment: Effects of metal ions: residual activity, casein method; type: biochemical, Bacillus sp. KSM-KP1790
KP9860 protease [10] = type: biochemical, Bacillus sp. KSM-KP9860
[11] = system: 3 kinds of proteases (KP43, KP1790, KP9860); experiment: Effects of metal ions, summary for the 3 kinds of proteases; type: biochemical, Bacillus sp.; details: 1 mmol/L metal salt, 20 mmol/L boric acid buffer (pH 10), 30° C., 20 minutes
[12] = inhibitor 5 mM, 10 mmol/L phosphoric acid buffer (pH 7.0), 30° C., 20 minutes, no inhibitor = 100%
[13] = inhibitor 0.1 mM, 10 mmol/L phosphoric acid buffer (pH 7.0), 30° C., 20 minutes, no inhibitor = 100%
[14] = 1 mM metal salt, 20 mM borate buffer (pH 10.0), 30° C., 20 minutes, no metal salt = 100%

Na linear alkylbenzenesulfonate [Na linear alkylbenzenesulfonate (LAS)]
Residual activity KP43 (KP43 protease [1]): 100% | Residual activity KP1790 (KP1790 protease [2]): 88% | Residual activity KP9860 (KP9860 protease [3]): 100%

Na alkyl sulfate [Na alkyl sulfate (AS)]
Residual activity KP43 (KP43 protease [1]): 113% | Residual activity KP1790 (KP1790 protease [2]): 107% | Residual activity KP9860 (KP9860 protease [3]): 107%

CCN1C(=O)C=CC1=O [NEM, N-ethylmaleimide]
Residual activity (%) KP43 (KP43 protease [4]): 97% | Residual activity (%) KP1790 (KP1790 protease [5]): 100% | Residual activity (%) KP9860 (KP9860 protease [6]; pH 7): 100%

O=C(O)CN(CCOCCOCCN(CC(=O)O)CC(=O)O)CC(=O)O [EGTA, ethyleneglycoltetraacetic acid]
Residual activity (%) KP43 (KP43 protease [4]): 92% | Residual activity (%) KP1790 (KP1790 protease [5]): 91% | Residual activity (%) KP9860 (KP9860 protease [6]; [12]): 90%

CC(=O)N[C@@H](CC(C)C)C(=O)N[C@@H](CC(C)C)C(=O)N[C@H](C=O)CCCNC(=N)N [Leupeptin]
Residual activity (%) KP43 (KP43 protease [4]): 102% | Residual activity (%) KP1790 (KP1790 protease [5]): 101% | Residual activity (%) KP9860 (KP9860 protease [6]; pH 7): 93% | effect of inhibitor on activity [7]: not found

CCCCCCCCCCCCOS(=O)(=O)[O-].[Na+] [Na dodecyl sulfate (SDS), Na dodecyl sulfate]
Residual activity KP43 (KP43 protease [1]): 104% | Residual activity KP1790 (KP1790 protease [2]): 97% | Residual activity KP9860 (KP9860 protease [3]): 103%

CC(C)[C@H](NC(=O)[C@H](CCCNC(=N)N)NC(=O)N[C@@H](Cc1ccccc1)C(=O)O)C(=O)N[C@H](C=O)CCCNC(=N)N [Antipine] ({Phe-CO}-Arg-Val-Arg-aldehyde)
Residual activity (%) KP43 (KP43 protease [4]): 103% | Residual activity (%) KP1790 (KP1790 protease [5]): 99% | Residual activity (%) KP9860 (KP9860 protease [6]; [13]): 97% | effect of inhibitor on activity [7]: not found

O[C@H](CS)[C@H](O)CS (racemic) [DTT, dithiothreitol]
Residual activity (%) KP43 (KP43 protease [4]): 104% | Residual activity (%) KP1790 (KP1790 protease [5]): 102% | Residual activity (%) KP9860 (KP9860 protease [6]; [12]): 105%

O=C(O)CN(CCN(CC(=O)O)CC(=O)O)CC(=O)O [EDTA, ethylenediaminetetraacetic acid]
Residual activity (%) KP43 (KP43 protease [4]): 110% | Residual activity (%) KP1790 (KP1790 protease [5]): 97% | Residual activity (%) KP9860 (KP9860 protease [6]; [12]): 101%

O=[N+]([O-])[O-].[Ag+] [AgNO3, silver nitrate]
Residual activity (%) KP43 (KP43 protease [8]; [14]): 66% | Residual activity (%) KP1790 (KP1790 protease [9]; [14]): 70% | Residual activity (%) KP9860 (KP9860 protease [10]; [14]): 45% | effect of metal salt on activity [11]: inhibited

[Cl-].[Cl-].[Zn+2] [ZnCl2]
Residual activity (%) KP43 (KP43 protease [8]; [14]): 85% | Residual activity (%) KP1790 (KP1790 protease [9]; [14]): 94% | Residual activity (%) KP9860 (KP9860 protease [10]; [14]): 91%

CC(C)C[C@H](NC(=O)N[C@H](C(=O)N[C@@H](CCC(N)=O)C(=O)N[C@@H](C)C=O)[C@@H]1CCNC(=N)N1)C(=O)O [Elastatinal]
Residual activity (%) KP43 (KP43 protease [4]): 99% | Residual activity (%) KP1790 (KP1790 protease [5]): 102% | Residual activity (%) KP9860 (KP9860 protease [6]; [13]): 102%

[Ca+2].[Cl-].[Cl-] [CaCl2, calcium chloride]
Residual activity (%) KP43 (KP43 protease [8]; pH 10): 97% | Residual activity (%) KP1790 (KP1790 protease [9]; pH 10): 95% | Residual activity (%) KP9860 (KP9860 protease [10]; pH 10): 101%

[Cl][Fe]([Cl])[Cl] [FeCl3]
Residual activity (%) KP43 (KP43 protease [8]; [14]): 93% | Residual activity (%) KP1790 (KP1790 protease [9]; [14]): 113% | Residual activity (%) KP9860 (KP9860 protease [10]; [14]): 96%

CC(C)C[C@H](NC(=O)[C@@H](NC(=O)N[C@@H](Cc1ccccc1)C(=O)O)[C@@H]1CCN=C(N)N1)C(=O)N[C@H](C=O)Cc1ccccc1 [Chymostatin]
Residual activity (%) KP43 (KP43 protease [4]): 87% | Residual activity (%) KP1790 (KP1790 protease [5]): 87% | Residual activity (%) KP9860 (KP9860 protease [6]; pH 7): 80% | effect of inhibitor on activity [7]: inhibited

[Cl-].[Cl-].[Mg+2] [MgCl2]
Residual activity (%) KP43 (KP43 protease [8]; [14]): 92% | Residual activity (%) KP1790 (KP1790 protease [9]; [14]): 103% | Residual activity (%) KP9860 (KP9860 protease [10]; [14]): 100%

c1cnc2c(c1)ccc1cccnc12 [o-Phenanthroline]
Residual activity (%) KP43 (KP43 protease [4]): 100% | Residual activity (%) KP1790 (KP1790 protease [5]): 103% | Residual activity (%) KP9860 (KP9860 protease [6]; [12]): 100%

CoCl2
Residual activity (%) KP43 (KP43 protease [8]; pH 10): 91% | Residual activity (%) KP1790 (KP1790 protease [9]; pH 10): 101% | Residual activity (%) KP9860 (KP9860 protease [10]; pH 10): 98%

Na α-olefinsulfonate [Na α-olefinsulfonate (AOS)]
Residual activity KP43 (KP43 protease [1]): 100% | Residual activity KP1790 (KP1790 protease [2]): 111% | Residual activity KP9860 (KP9860 protease [3]): 100%

[Cl][Hg][Cl] [HgCl2, mercury chloride]
Residual activity (%) KP43 (KP43 protease [8]; [14]): 38% | Residual activity (%) KP1790 (KP1790 protease [9]; [14]): 37% | Residual activity (%) KP9860 (KP9860 protease [10]; [14]): 33% | effect of metal salt on activity [11]: inhibited

CC(C)C[C@H](NC(=O)[C@H]1O[C@@H]1C(=O)O)C(=O)NCCCCN=C(N)N [E-64]
Residual activity (%) KP43 (KP43 protease [4]): 104% | Residual activity (%) KP1790 (KP1790 protease [5]): 99% | Residual activity (%) KP9860 (KP9860 protease [6]; pH 7): 103%

[Cl][Cu][Cl] [CuCl2]
Residual activity (%) KP43 (KP43 protease [8]; [14]): 91% | Residual activity (%) KP1790 (KP1790 protease [9]; [14]): 96% | Residual activity (%) KP9860 (KP9860 protease [10]; [14]): 94%

O=S(=O)(F)Cc1ccccc1 [PMSF, phenylmethanesulfonyl fluoride]
Residual activity (%) KP43 (KP43 protease [4]): 0% | Residual activity (%) KP1790 (KP1790 protease [5]): 0% | Residual activity (%) KP9860 (KP9860 protease [6]; pH 7): 0% | effect of inhibitor on activity [7]: inhibited

O=C(O)c1cc[c]([Hg][Cl])cc1 [PCMB, p-chloromercury benzoate]
Residual activity (%) KP43 (KP43 protease [4]): 125% | Residual activity (%) KP1790 (KP1790 protease [5]): 115% | Residual activity (%) KP9860 (KP9860 protease [6]; pH 7): 126%

[Cl][Ni][Cl] [NiCl2]
Residual activity (%) KP43 (KP43 protease [8]; [14]): 92% | Residual activity (%) KP1790 (KP1790 protease [9]; [14]): 95% | Residual activity (%) KP9860 (KP9860 protease [10]; [14]): 96%

α-Sulfofatty acid ester [α-Sulfofatty acid ester (α-SFE)]
Residual activity KP43 (KP43 protease [1]): 112% | Residual activity KP1790 (KP1790 protease [2]): 113% | Residual activity KP9860 (KP9860 protease [3]): 105%

Na polyoxyethylene alkylsulfate [Na polyoxyethylene alkylsulfate (ES)]
Residual activity KP43 (KP43 protease [1]): 101% | Residual activity KP1790 (KP1790 protease [2]): 102% | Residual activity KP9860 (KP9860 protease [3]): 104%
